Here are results for 18 compounds from PubChem BioAssay AID248 (DTP/NCI, 2004).

Several values for one entry are separate records, joined by “and”; a condition that tells them apart may be missing. Identical values can stand only once. Toxic doses and inconclusive results are not listed.

The assay has as its system L1210 leukemia ip in BDF1 mice, survival T/C. Description: NCI In Vivo Anticancer Drug Screen. Data for tumor model L1210 Leukemia (intraperitoneal) in B6D2F1 (BDF1) mice. The settings on record: endpoint: mean survival time, higher = longer survival. Put shortly:
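In this screen, tumor-bearing mice given compound are compared to those given vehicle, and their survival values are reported as a treated-to-control quotient.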

[1] abbreviates: dose: 100.0 mg/kg/injection, schedule: Q04DX003 (ip), vehicle: Klucel (hydroxypropylcellulose) (HPC).
Setting [2] is: dose: 200.0 mg/kg/injection, schedule: Q04DX003 (ip), vehicle: Klucel (hydroxypropylcellulose) (HPC).
[3] abbreviates: dose: 400.0 mg/kg/injection, schedule: Q04DX003 (ip), vehicle: Klucel (hydroxypropylcellulose) (HPC).
Setting [4] is: dose: 100.0 mg/kg/injection, schedule: Q01DX001 (ip), vehicle: other.
Where [5] appears, read: dose: 200.0 mg/kg/injection, schedule: Q01DX001 (ip), vehicle: other.
Where [6] appears, read: dose: 100.0 mg/kg/injection, schedule: Q04DX003 (ip), vehicle: saline with Tween-80.
Where [7] appears, read: dose: 200.0 mg/kg/injection, schedule: Q04DX003 (ip), vehicle: saline with Tween-80.
[8] abbreviates: dose: 300.0 mg/kg/injection, schedule: Q04DX003 (ip), vehicle: saline with Tween-80.
Where [9] appears, read: dose: 400.0 mg/kg/injection, schedule: Q04DX003 (ip), vehicle: saline with Tween-80.
Where [10] appears, read: dose: 100.0 mg/kg/injection, schedule: Q01DX001 (ip), vehicle: saline.
Setting [11] is: dose: 100.0 mg/kg/injection, schedule: Q01DX009 (ip), vehicle: saline.
Where [12] appears, read: dose: 200.0 mg/kg/injection, schedule: Q01DX001 (ip), vehicle: saline.

As to `O=C(Nc1cccc(C2=NCCCN2)c1)Nc1cc(C(=O)Nc2ccc(C3=NCCCN3)cc2)ccc1C(=O)Nc1ccc(C2=NCCCN2)cc1`, the T/C was 103 % of control (dose: 0.47 mg/kg/injection, schedule: Q01DX Z (ip), vehicle: saline); 95 % of control (dose: 0.94 mg/kg/injection, schedule: Q01DX Z (ip), vehicle: saline); 104 % of control (dose: 1.88 mg/kg/injection, schedule: Q01DX Z (ip), vehicle: saline); 117 % of control and 265 % of control (dose: 3.75 mg/kg/injection, schedule: Q01DX Z (ip), vehicle: saline); 98 % of control (dose: 7.5 mg/kg/injection, schedule: Q01DX Z (oral), vehicle: saline); 96 % of control (dose: 15.0 mg/kg/injection, schedule: Q01DX Z (ip), vehicle: saline). Further, the T/C is 104 % of control (dose: 15.0 mg/kg/injection, schedule: Q01DX Z (oral), vehicle: saline); 104 % of control (dose: 30.0 mg/kg/injection, schedule: Q01DX Z (oral), vehicle: saline); 104 % of control (dose: 60.0 mg/kg/injection, schedule: Q01DX Z (oral), vehicle: saline).
Take `Cc1cc(Cl)ccc1OC(=O)Nc1c(C)cccc1C`: the T/C is, setting by setting: (dose: 100.0 mg/kg/injection, schedule: Q01DX009 (ip), vehicle: Klucel (hydroxypropylcellulose) (HPC)) 101 % of control; under setting [1], 98 % of control; (dose: 200.0 mg/kg/injection, schedule: Q01DX009 (ip), vehicle: Klucel (hydroxypropylcellulose) (HPC)) 101 % of control; under setting [2], 103 % of control; (dose: 400.0 mg/kg/injection, schedule: Q01DX009 (ip), vehicle: Klucel (hydroxypropylcellulose) (HPC)) 89 % of control; under setting [3], 101 % of control.
As to `C=C(C)C#CC(O)(C(=O)OCC)C1CCCC1` (stereo not given), the T/C by setting is: under setting [4], 100 % of control; under setting [5], 93 % of control; (dose: 400.0 mg/kg/injection, schedule: Q01DX001 (ip), vehicle: other) 93 % of control.
As for `CCCCCCCc1ccc(C(C)=O)cc1`, the T/C was 100 % of control under setting [6]; 97 % of control (dose: 132.0 mg/kg/injection, schedule: Q04DX003 (ip), vehicle: saline with Tween-80); 101 % of control under setting [7]; 93 % of control under setting [8]; 108 % of control under setting [9].
With `O=C(NCCc1ccccc1)Nc1ccccc1`, the T/C (dose: 75.0 mg/kg/injection, schedule: Q01DX009 (ip), vehicle: saline with Tween-80) is 100 % of control; the T/C (dose: 75.0 mg/kg/injection, schedule: Q04DX003 (ip), vehicle: saline with Tween-80) is 92 % of control; the T/C (dose: 150.0 mg/kg/injection, schedule: Q01DX009 (ip), vehicle: saline with Tween-80) is 90 % of control; the T/C (dose: 150.0 mg/kg/injection, schedule: Q04DX003 (ip), vehicle: saline with Tween-80) was 91 % of control; the T/C (dose: 300.0 mg/kg/injection, schedule: Q01DX009 (ip), vehicle: saline with Tween-80) was 88 % of control; the T/C under setting [8] was 89 % of control.
Regarding `c1ccc(CNCc2cccnc2)cc1`, the T/C is 91 % of control (dose: 75.0 mg/kg/injection, schedule: Q01DX009 (ip), vehicle: other) and 98 % of control (dose: 150.0 mg/kg/injection, schedule: Q01DX009 (ip), vehicle: other).
`CC(=O)OC1CCC2(C)C(CCC3C(CCC(=O)O)C(C)(CC(C)C(=O)O)CCC32)C1` (stereo not given): the T/C was 116 % of control (dose: 100.0 mg/kg/injection, schedule: Q04DX003 (sc), vehicle: steriod suspending solution); 109 % of control (dose: 200.0 mg/kg/injection, schedule: Q04DX003 (sc), vehicle: steriod suspending solution); 113 % of control (dose: 400.0 mg/kg/injection, schedule: Q04DX003 (sc), vehicle: steriod suspending solution).
For the compound `COC(=O)C(CSc1ccccc1)NC(=O)c1ccccc1` (stereo not given), the T/C under setting [1] was 101 % of control, the T/C under setting [2] is 114 % of control and the T/C under setting [3] is 96 % of control.
Regarding `COc1cccc(C2CCCCC2O)c1` (stereo not given), the T/C (dose: 50.0 mg/kg/injection, schedule: Q01DX009 (ip), vehicle: saline with Tween-80) was 90 % of control; the T/C (dose: 100.0 mg/kg/injection, schedule: Q01DX009 (ip), vehicle: saline with Tween-80) was 93 % of control; the T/C (dose: 200.0 mg/kg/injection, schedule: Q01DX009 (ip), vehicle: saline with Tween-80) is 96 % of control.
`Cc1cc[n+](Cc2ccc([N+](=O)[O-])cc2)cc1`: the T/C by setting is: (dose: 25.0 mg/kg/injection, schedule: Q01DX009 (ip), vehicle: saline) 94 % of control; (dose: 50.0 mg/kg/injection, schedule: Q01DX009 (ip), vehicle: saline) 89 % of control; (dose: 50.0 mg/kg/injection, schedule: Q04DX003 (ip), vehicle: saline) 101 % of control; under setting [10], 96 % of control; under setting [11], 93 % of control; (dose: 100.0 mg/kg/injection, schedule: Q04DX003 (ip), vehicle: saline) 98 % of control. Besides, the T/C under setting [12] is 100 % of control.
For the compound `Cc1nc2[nH]cnc(=S)c2[nH]1`, the T/C was 107 % of control under setting [4] and 103 % of control under setting [5].
In the case of `C=CCOCC(O)CO` (stereo not given), the T/C reads like this: under setting [11], 108 % of control; (dose: 200.0 mg/kg/injection, schedule: Q01DX009 (ip), vehicle: saline) 94 % of control; (dose: 400.0 mg/kg/injection, schedule: Q01DX009 (ip), vehicle: saline) 103 % of control.
With `NC=O`, the T/C (dose: 62.5 mg/kg/injection, schedule: Q01DX009 (ip), vehicle: saline) is 112 % of control; the T/C (dose: 62.5 mg/kg/injection, schedule: Q01DX015 (ip), vehicle: saline) was 95 % of control; the T/C under setting [10] was 94 % of control and 109 % of control; the T/C (dose: 125.0 mg/kg/injection, schedule: Q01DX009 (ip), vehicle: saline) is 107 % of control; the T/C (dose: 125.0 mg/kg/injection, schedule: Q01DX015 (ip), vehicle: saline) was 101 % of control; the T/C under setting [12] was 101 % of control and 92 % of control. Also, the T/C is, setting by setting: (dose: 250.0 mg/kg/injection, schedule: Q01DX009 (ip), vehicle: saline) 118 % of control; (dose: 250.0 mg/kg/injection, schedule: Q01DX015 (ip), vehicle: saline) 110 % of control; (dose: 400.0 mg/kg/injection, schedule: Q01DX001 (ip), vehicle: saline) 100 % of control and 101 % of control; (dose: 500.0 mg/kg/injection, schedule: Q01DX015 (ip), vehicle: saline) 92 % of control; (dose: 800.0 mg/kg/injection, schedule: Q01DX001 (ip), vehicle: saline) 106 % of control.
Regarding `N#C/C(=C\c1ccc2c(c1)CCC2)C(N)=O`, the T/C was 105 % of control under setting [6], 95 % of control under setting [7] and 95 % of control under setting [9].
With `O=C1C(O)=C(c2ccc(O)cc2)C(=O)C(O)=C1c1ccc(O)cc1`, the T/C is 88 % of control (dose: 25.0 mg/kg/injection, schedule: Q04DX002 (ip), vehicle: Klucel (hydroxypropylcellulose) (HPC)); 105 % of control (dose: 25.0 mg/kg/injection, schedule: Q04DX002 (oral), vehicle: saline with Tween-80); 95 % of control (dose: 50.0 mg/kg/injection, schedule: Q04DX002 (ip), vehicle: Klucel (hydroxypropylcellulose) (HPC)); 98 % of control (dose: 50.0 mg/kg/injection, schedule: Q04DX002 (oral), vehicle: saline with Tween-80); 103 % of control (dose: 100.0 mg/kg/injection, schedule: Q04DX002 (ip), vehicle: Klucel (hydroxypropylcellulose) (HPC)); 112 % of control (dose: 100.0 mg/kg/injection, schedule: Q04DX002 (oral), vehicle: saline with Tween-80).
`O=C(O)c1cccc2c1-c1ccc(Cl)cc1C2`: the T/C is 104 % of control under setting [1] and 102 % of control under setting [2].
Turning to `O=C(O)c1c(Cl)c(Cl)c(Cl)c(Cl)c1C(=O)c1ccccc1`, the T/C was 109 % of control (dose: 75.0 mg/kg/injection, schedule: Q01DX001 (ip), vehicle: saline); 113 % of control (dose: 150.0 mg/kg/injection, schedule: Q01DX001 (ip), vehicle: saline); 101 % of control (dose: 300.0 mg/kg/injection, schedule: Q01DX001 (ip), vehicle: saline).
Regarding `O=C(OC(=O)c1cccc(-c2ccccc2)c1)c1cccc(-c2ccccc2)c1`, the T/C under setting [1] is 104 % of control, the T/C under setting [2] is 101 % of control and the T/C under setting [3] is 96 % of control.
